pIC50: −log10 of the molar value.

The target in the experiment is T1, aldosterone receptor (Rattus norvegicus, UniProt P22199).
T1 construct: centrifuged at 105,000 g for 30 minutes, and then a supernatant was collected as a renal soluble fraction; from tissue; host or cells: rat kidney (adrenalectomized rat), 105,000 g supernatant (cytosol)
T1 sequence (P22199 1-981): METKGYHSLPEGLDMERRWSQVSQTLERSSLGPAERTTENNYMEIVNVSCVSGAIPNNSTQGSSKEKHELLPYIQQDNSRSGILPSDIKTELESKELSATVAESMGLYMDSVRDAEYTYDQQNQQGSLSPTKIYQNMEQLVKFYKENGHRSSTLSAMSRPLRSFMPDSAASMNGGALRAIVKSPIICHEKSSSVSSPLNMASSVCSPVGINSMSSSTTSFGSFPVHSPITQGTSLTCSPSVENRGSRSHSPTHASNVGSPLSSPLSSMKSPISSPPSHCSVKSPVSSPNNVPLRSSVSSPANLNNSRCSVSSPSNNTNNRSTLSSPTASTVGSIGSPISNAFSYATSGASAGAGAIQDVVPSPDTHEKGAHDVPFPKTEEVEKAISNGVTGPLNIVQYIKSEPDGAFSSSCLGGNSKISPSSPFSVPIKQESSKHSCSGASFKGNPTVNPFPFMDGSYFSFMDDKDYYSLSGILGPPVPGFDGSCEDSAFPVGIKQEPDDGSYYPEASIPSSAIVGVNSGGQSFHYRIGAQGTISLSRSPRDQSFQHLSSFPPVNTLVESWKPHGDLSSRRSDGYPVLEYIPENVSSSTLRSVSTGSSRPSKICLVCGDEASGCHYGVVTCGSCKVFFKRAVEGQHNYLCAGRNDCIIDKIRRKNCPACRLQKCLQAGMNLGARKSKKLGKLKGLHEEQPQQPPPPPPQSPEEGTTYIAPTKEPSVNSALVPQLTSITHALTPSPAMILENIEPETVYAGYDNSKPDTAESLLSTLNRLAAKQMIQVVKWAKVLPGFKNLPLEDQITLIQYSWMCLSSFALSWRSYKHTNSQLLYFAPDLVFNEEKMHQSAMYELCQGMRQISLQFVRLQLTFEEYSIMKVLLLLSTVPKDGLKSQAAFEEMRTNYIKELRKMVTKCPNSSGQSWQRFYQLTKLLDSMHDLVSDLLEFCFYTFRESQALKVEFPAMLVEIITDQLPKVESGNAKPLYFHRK
Briefly: Binding inhibition test for aldosterone receptor ([3H]aldosterone, rat renal soluble fraction). Conditions: [3H]aldosterone 2 nM, rat renal soluble fraction, in the presence of 2 μM RU-486, 4° C. about 18 hours; read-out: MR IC50. The procedure:
Binding Inhibition Test for Aldosterone Receptor
A rat was layed open in flank regions (on both sides) to remove both adrenal glands. After stitching up the incision, the rat was returnd to a breeding cage again. After removing the kidney from the rat reared for about 3 to 5 days, the kidney was homogenized in 0.1 M Tris-HCl, 0.25M sucrose, 0.1M Na2MoO4 and 2 mM DTT buffer solution (pH7.4). The resultant was centrifuged at 105,000 g for 30 minutes, and then a supernatant was collected as a renal soluble fraction.
The rat renal soluble fraction (0.5 to 1.5 mg), a labeled ligand [^3H] aldosterone (2 nM) and a test article were reacted in the presence of 2 μM RU-486 (glucocorticoid receptor antagonist) in 100 μL of total amounts at 4° C. for about 18 hours. Afterwards, to the reaction solution was added 50 μL of 5% dextran-coated activated charcoal, and the mixture was immingled, and then centrifuged at 3,000 g for 5 minutes. Then, a supernatant (100 μL) was collected and mixed with a liquid scintillator ACS-II (Amersham) (3.5 mL), and then analyzed its radioactivity by a liquid scintillation counter (manufactured by Packard, Tri Carb 2700TR). A non-specific binding was obtained by addition of 2 μM aldosterone to a reaction solution. […]
Binding inhibition rate (%)=100−{(B−N)/(B0−N)}×100
B: labeled ligand binding amounts in the presence of a test article and a labeled ligand
B0: labeled ligand binding amounts in the absence of a test article
N: labeled ligand binding amounts in the presence of excess aldosterone (2 μM)
Test example 1 was carried out for compounds obtained in the Examples.
As usually defined, the pIC50 is −log10 of the IC50, conventionally taken in molar units. With `CS(=O)(=O)c1ccc(NC(=O)c2ccc(-c3ccccc3OC(F)(F)F)c(CN3CCCC(F)(F)C3)c2)cc1` [Example 144], the pIC50 is 6.30.

Turning to `CS(=O)(=O)c1ccc(NC(=O)c2ccc(-c3ccccc3OC(F)(F)F)c(CNC[C@H]3CCCO3)c2)cc1` [Example 147], the negative logarithm of the IC50 (pIC50) is > 5.00.

Turning to `Cn1ccc(CNCc2cc(C(=O)Nc3ccc(S(C)(=O)=O)cc3)ccc2-c2ccccc2OC(F)(F)F)n1` [Example 153], the pIC50 was 6.33. `CCN(CC)Cc1cc(C(=O)Nc2ccc(S(C)(=O)=O)cc2)ccc1-c1ccccc1OC(F)(F)F` [Example 159]: the pIC50 was 6.54. As to `CS(=O)(=O)c1ccc(NC(=O)c2ccc(-c3ccccc3OC(F)(F)F)c(CN3CCCC3)c2)cc1` [Example 160], the pIC50 was 5.70.

On to `CS(=O)(=O)c1ccc(NC(=O)c2ccc(-c3ccccc3OC(F)(F)F)c(CN3CCOCC3)c2)cc1` [Example 162], for which the pIC50 was 6.18.

With `CS(=O)(=O)c1ccc(NC(=O)c2ccc(-c3ccccc3OC(F)(F)F)c(CN3CCCOCC3)c2)cc1` [Example 163], the pIC50 was > 5.00. On to `CS(=O)(=O)c1ccc(NC(=O)c2ccc(-c3ccccc3OC(F)(F)F)c(CN3CC(F)(F)C3)c2)cc1` [Example 171], for which the negative logarithm of the IC50 (pIC50) was > 5.00. Next, `CS(=O)(=O)c1ccc(NC(=O)c2ccc(-c3ccccc3OC(F)(F)F)c(CN3CCC(F)(F)CC3)c2)cc1` [Example 174]: 6.03; `CS(=O)(=O)c1ccc(NC(=O)c2ccc(-c3ccccc3OC(F)(F)F)c(CNCC(F)F)c2)cc1` [Example 176]: 6.41; `CS(=O)(=O)c1ccc(NC(=O)c2ccc(-c3ccccc3OC(F)(F)F)c(CNCc3ccccc3)c2)cc1` [Example 180]: 6.55.

`Cn1cccc1CNCc1cc(C(=O)Nc2ccc(S(C)(=O)=O)cc2)ccc1-c1ccccc1OC(F)(F)F` [Example 182]: the pIC50 was 6.46.

`CCN(Cc1ccccc1)Cc1cc(C(=O)Nc2ccc(S(C)(=O)=O)cc2)ccc1-c1ccccc1OC(F)(F)F` [Example 189]: the pIC50 is > 5.00. In the case of `CS(=O)(=O)c1ccc(NC(=O)c2ccc(-c3ccccc3OC(F)(F)F)c(CNCCOc3ccccc3)c2)cc1` [Example 190], the pIC50 is > 5.00. Next, `CN(Cc1cc(C(=O)Nc2ccc(S(C)(=O)=O)cc2)ccc1-c1ccccc1OC(F)(F)F)C1CCCCC1` [Example 202]: 6.12.

With `CCC(C)(C)NCc1cc(C(=O)Nc2ccc(S(C)(=O)=O)cc2)ccc1-c1ccccc1OC(F)(F)F` [Example 206], the pIC50 was > 5.00. As for `CS(=O)(=O)c1ccc(NC(=O)c2ccc(-c3ccccc3OC(F)(F)F)c(CN[C@H]3CCCc4ccccc43)c2)cc1` [Example 211], the pIC50 was 6.04.

As for `Cn1ccnc1CNCc1cc(C(=O)Nc2ccc(S(C)(=O)=O)cc2)ccc1-c1ccccc1OC(F)(F)F` [Example 218], the pIC50 was 6.43. Next, `CS(=O)(=O)c1ccc(NC(=O)c2ccc(-c3ccccc3OC(F)(F)F)c(CNCC3CCCCC3)c2)cc1` [Example 221]: > 5.00; `CC(C)CCNCc1cc(C(=O)Nc2ccc(S(C)(=O)=O)cc2)ccc1-c1ccccc1OC(F)(F)F` [Example 226]: > 5.00.

Turning to `CS(=O)(=O)c1ccc(NC(=O)c2ccc(-c3ccccc3OC(F)(F)F)c(CN[C@@H]3CCCc4ccccc43)c2)cc1` [Example 229], the pIC50 was > 7.00. Regarding `CN(Cc1ccc(F)cc1)Cc1cc(C(=O)Nc2ccc(S(C)(=O)=O)cc2)ccc1-c1ccccc1OC(F)(F)F` [Example 231], the pIC50 is > 5.00. Then `COc1cc(NC(=O)c2ccc(-c3ccccc3C(F)(F)F)c(C(O)C(F)(F)F)c2)ccc1S(N)(=O)=O` (centres unmarked) [Example 244], with 6.17; and `COc1cc(NC(=O)c2ccc(-c3ccccc3-c3cccs3)c(CO)c2)ccc1S(N)(=O)=O` [Example 257], with 7.08. Next, `COc1cc(NC(=O)c2ccc(-c3ccccc3-c3nc(C)no3)c(CO)c2)ccc1S(N)(=O)=O` [Example 259]: 6.35; `COc1cc(NC(=O)c2ccc(-c3ccccc3OC(F)(F)C(F)F)c(CO)c2)ccc1S(N)(=O)=O` [Example 260]: 6.36. Next, `CCN(CC)c1cc(C(=O)Nc2ccc(S(N)(=O)=O)cc2)ccc1-c1ccccc1OC(F)(F)F` [Example 265]: 6.44; `COc1cc(NC(=O)c2ccc(-c3ccccc3C(F)(F)F)c(CNCC(F)F)c2)ccc1S(N)(=O)=O` [Example 268]: 6.00; `COc1ccc(-c2ccc(C(=O)Nc3ccc(S(N)(=O)=O)c(OC)c3)cc2CNCC(F)F)c(C(F)(F)F)c1` [Example 270]: 6.19. On to `COc1cc(NC(=O)c2ccc(-c3ccc(N)cc3C(F)(F)F)c(C)c2)ccc1S(N)(=O)=O` [Example 271], for which the pIC50 was 6.43. Next, `COc1cc(NC(=O)c2ccc(-c3ccc(O)cc3C(F)(F)F)c(C)c2)ccc1S(N)(=O)=O` [Example 272]: 6.40; `COc1cc(NC(=O)c2ccc(-c3ncccc3C(F)(F)F)c(C)c2)ccc1S(N)(=O)=O` [Example 279]: 5.39. Then `COc1cc(NC(=O)c2ccc(-c3cccnc3C3CCC3)c(C)c2)ccc1S(N)(=O)=O` [Example 282], with 6.14. Turning to `COc1cc(NC(=O)c2ccc(-c3ccccc3OC(F)(F)F)c(CN3CCC(F)(F)CC3)c2)ccc1S(N)(=O)=O` [Example 286], the pIC50 is 6.74. For `COc1cc(NC(=O)c2ccc(-c3ccccc3OC(F)(F)F)c(CN3CC(F)(F)C3)c2)ccc1S(N)(=O)=O` [Example 287], the pIC50 is 6.60. Consider `COc1cc(NC(=O)c2ccc(-c3ccccc3OC(F)(F)F)c(CNC3CC3)c2)ccc1S(N)(=O)=O` [Example 288], for which the negative logarithm of the IC50 (pIC50) is 6.92. In the case of `COc1cc(NC(=O)c2ccc(-c3ccccc3OC(F)(F)F)c(CNC3CCC3)c2)ccc1S(N)(=O)=O` [Example 289], the negative logarithm of the IC50 (pIC50) was 6.44. Turning to `COc1cc(NC(=O)c2ccc(-c3ccccc3OC(F)(F)F)c(CNc3nnn[nH]3)c2)ccc1S(N)(=O)=O` [Example 293], the negative-log IC50 (pIC50) is 6.57. In the case of `COc1cc(NC(=O)c2ccc(-c3ccccc3OC(F)(F)F)c(CN(C)C3CC3)c2)ccc1S(N)(=O)=O` [Example 294], the negative logarithm of the IC50 (pIC50) is 7.66. Then `CCN(CC)Cc1cc(C(=O)Nc2ccc(S(N)(=O)=O)c(OC)c2)ccc1-c1ccccc1OC(F)(F)F` [Example 295], with 7.00; and `COc1cc(NC(=O)c2ccc(-c3ccccc3OC(F)(F)F)c(CN3CCCCC3)c2)ccc1S(N)(=O)=O` [Example 297], with 6.72. Next, `COc1cc(NC(=O)c2ccc(-c3ccccc3OC(F)(F)F)c(CN3CCCCCCC3)c2)ccc1S(N)(=O)=O` [Example 299]: 6.85. Then `COc1cc(NC(=O)c2ccc(-c3ccccc3OC(F)(F)F)c(CN3CC(C)OC(C)C3)c2)ccc1S(N)(=O)=O` (centres unmarked) [Example 302], with 7.21; and `COc1cc(NC(=O)c2ccc(-c3ccccc3OC(F)(F)F)c(CN3CCCOCC3)c2)ccc1S(N)(=O)=O` [Example 303], with 6.82. Take `COc1cc(NC(=O)c2ccc(-c3ccccc3OC(F)(F)F)c(CN3CC(F)(F)C(F)(F)C3)c2)ccc1S(N)(=O)=O` [Example 305]: the pIC50 is 6.82. As for `COc1cc(NC(=O)c2ccc(-c3ccccc3OC(F)(F)F)c(CNC3=NCCO3)c2)ccc1S(N)(=O)=O` [Example 309], the pIC50 was 6.64.

Regarding `CCCOc1ccc(-c2ccc(NC(=O)c3ccc(S(N)(=O)=O)c(OC)c3)cc2CO)c(C(F)(F)F)c1` [Example 313], the pIC50 was 5.66.

The record behind these values is US20130116227A1, “BIARYL AMIDE DERIVATIVE OR PHARMACEUTICALLY ACCEPTABLE SALT THEREOF” (DAINIPPON SUMITOMO PHARMA CO., LTD., priority 2010, published 2013).
